Reference: the supplement of paper PMC10307832

Legend:
Assay in all cases: relative viability (nuclei count vs DMSO), 5 days (fraction); higher = more cells survive
Mirin + Pictilisib = compound: N=C1NC(=O)/C(=C/c2ccc(O)cc2)S1 [Mirin] + CS(=O)(=O)N1CCN(Cc2cc3nc(-c4cccc5[nH]ncc45)nc(N4CCOCC4)c3s2)CC1 [Pictilisib] (partner 1 µM)
Procedure, shortened: (§1)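 Lung cancer cell lines, seeded in 1536-well plates, were treated the following day by pin tool with a single drug or with five library-drug doses (not always all listed) in √10 steps on top of a fixed anchor-drug dose. Cells were fixed and nuclei stained in one step after 5 days, and nuclei were counted. Relative viability is the nuclei count for treated wells divided by that for vehicle wells, reported as medians of duplicate plates.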

[1] = compound: CCC1=CN=CN=C1N2CCN(CC2)CC3=NC4=C(N3)C=C(C=C4)C(F)(F)F + CCNC(=O)c1noc(-c2cc(C(C)C)c(O)cc2O)c1-c1ccc(CN2CCOCC2)cc1 [Luminespib] (partner 0.01 µM)
Procedure, shortened: as §1

[2] = compound: CCC1=CN=CN=C1N2CCN(CC2)CC3=NC4=C(N3)C=C(C=C4)C(F)(F)F + NC(=O)Nc1cc(-c2cccc(F)c2)sc1C(=O)N[C@H]1CCCNC1 [AZD7762] (partner 0.2 µM)
Procedure, shortened: as §1

[3] = compound: CCC1=CN=CN=C1N2CCN(CC2)CC3=NC4=C(N3)C=C(C=C4)C(F)(F)F + CS(=O)(=O)CCNCc1ccc(-c2ccc3ncnc(Nc4ccc(OCc5cccc(F)c5)c(Cl)c4)c3c2)o1 [Lapatinib] (partner 2 µM)
Procedure, shortened: as §1

| Cell Line | relative viability (Mirin + Pictilisib; first compound 0.25 µM) | relative viability (Mirin + Pictilisib; first compound 0.7906 µM) | relative viability (Mirin + Pictilisib; first compound 2.5 µM) | relative viability (Mirin + Pictilisib; first compound 7.906 µM) | relative viability (Mirin + Pictilisib; first compound 25 µM) | relative viability ([1]; first compound 0.04 µM) | relative viability ([1]; first compound 0.1265 µM) | relative viability ([1]; first compound 0.4 µM) | relative viability ([1]; first compound 1.265 µM) | relative viability ([1]; first compound 4 µM) | relative viability ([2]; first compound 0.04 µM) | relative viability ([2]; first compound 0.1265 µM) | relative viability ([2]; first compound 0.4 µM) | relative viability ([2]; first compound 1.265 µM) | relative viability ([2]; first compound 4 µM) | relative viability ([3]; first compound 0.04 µM) | relative viability ([3]; first compound 0.1265 µM) | relative viability ([3]; first compound 0.4 µM) | relative viability ([3]; first compound 1.265 µM) | relative viability ([3]; first compound 4 µM) |
| --- | --- | --- | --- | --- | --- | --- | --- | --- | --- | --- | --- | --- | --- | --- | --- | --- | --- | --- | --- | --- |
| HCC-15 | 0.789 | 0.411 | 0.665 | 0.551 | 0.517 | 0.308 | 0.299 | 0.27 | 0.299 | 0.406 | 1.3 | 1.11 | 1.1 | 1.32 | 1.32 | 0.847 | 0.814 | 0.839 | 0.828 | 0.865 |
| NCI-H2347 | 0.564 | 0.622 | 1.71 | 0.749 | 0.595 | 0.346 | 0.415 | 0.372 | 0.228 | 0.44 | 0.708 | 0.699 | 0.823 | 0.645 | 0.905 | 1.06 | 0.793 | 0.985 | 0.828 | 1.1 |
| NCI-H1792 | 0.269 | 0.303 | 0.294 | 0.262 | 0.259 | 0.507 | 0.496 | 0.427 |  | 0.42 | 0.666 | 0.66 | 0.527 |  | 0.685 | 0.769 | 0.808 | 0.851 | 0.978 | 0.884 |
| NCI-H647 | 0.413 |  | 0.417 |  | 0.295 | 0.228 | 0.181 | 0.147 | 0.0988 | 0.152 | 0.438 | 0.476 | 0.457 | 0.471 | 0.554 | 1.27 | 1.04 |  | 0.802 | 1.09 |
| NCI-H2085 | 0.417 | 0.398 | 0.484 | 0.462 | 0.468 | 0.442 | 0.481 | 0.421 | 0.387 | 0.356 | 0.75 | 0.941 | 0.987 | 0.791 | 1.03 | 0.713 | 0.704 | 0.797 | 0.571 | 0.784 |
| PC-3 [JPC-3] | 0.678 | 0.73 | 0.731 | 0.702 | 0.706 | 0.681 | 0.733 | 0.668 | 0.71 | 0.618 |  | 0.688 | 0.69 | 0.683 | 0.808 | 0.473 | 0.425 | 0.374 | 0.441 | 0.523 |
| HOP-62 | 0.554 | 0.33 | 0.764 |  | 0.496 | 1.11 | 0.991 | 0.895 | 0.954 | 0.816 | 0.491 | 0.439 | 0.602 | 0.558 | 0.746 | 1.14 | 1.06 | 0.979 | 0.971 | 1.07 |
| NCI-H2126 | 0.533 | 0.406 | 0.465 | 0.456 | 0.448 | 0.847 | 0.89 | 0.931 | 0.773 | 0.922 | 0.97 | 1.02 | 0.957 | 1.02 | 1.17 | 0.772 | 0.713 | 0.708 | 0.736 | 0.838 |
| NCI-H2087 | 0.833 | 0.669 | 0.818 | 0.708 | 0.788 | 0.164 | 0.227 | 0.162 | 0.142 | 0.142 | 1.34 | 1.26 | 1.43 | 1.17 | 1.21 | 1.07 | 0.963 | 1.08 | 0.914 | 0.818 |
| NCI-H1793 | 0.387 | 0.327 | 0.236 | 0.311 | 0.482 | 0.152 | 0.311 | 0.171 |  | 0.165 | 0.548 | 0.407 | 0.392 | 0.334 | 0.347 | 0.581 | 0.652 | 0.534 |  | 0.635 |
| RERF-LC-KJ | 0.716 | 0.518 | 0.563 | 0.594 | 0.439 | 1.24 | 1.23 | 1.21 | 1.12 | 1.05 | 0.795 | 0.953 | 0.976 | 0.97 | 0.952 | 0.81 | 0.811 | 0.863 | 0.79 | 0.825 |
| H3255 | 0.516 | 0.444 | 0.493 | 0.306 | 0.564 | 0.785 | 0.853 | 0.72 | 0.619 | 0.859 | 0.86 | 0.852 | 0.824 | 0.931 | 0.874 | 0.241 | 0.238 | 0.218 | 0.234 | 0.246 |
| EMC-BAC-2 | 0.56 | 0.546 | 0.532 | 0.508 | 0.52 | 1.24 | 1.19 | 1.2 |  | 1.14 | 1.1 | 1.05 | 1.12 | 1.05 | 1.21 | 0.889 | 0.864 | 0.86 | 0.743 | 0.982 |
| CAL-12T | 0.535 |  | 0.561 |  | 0.368 | 0.803 | 0.454 | 0.485 | 0.273 | 0.29 | 0.501 | 0.6 | 0.609 | 0.679 | 0.604 |  | 0.667 | 0.677 | 0.707 | 0.574 |
| NCI-H1355 | 0.48 | 0.254 | 0.419 | 0.427 | 0.505 | 0.707 | 0.641 | 0.689 | 0.61 | 0.753 | 0.744 | 0.722 | 0.638 | 0.627 | 0.637 | 1 | 0.812 | 0.952 | 0.844 | 1.1 |
| PC-14 | 0.658 | 0.568 | 0.68 | 0.797 | 0.933 | 0.175 | 0.207 | 0.215 | 0.134 | 0.133 | 0.317 | 0.337 | 0.338 | 0.387 | 0.395 | 0.34 | 0.264 | 0.304 | 0.246 | 0.329 |
| LK-2 | 0.387 |  | 0.537 | 0.271 | 0.222 | 0.204 | 0.182 | 0.159 | 0.195 | 0.202 | 0.414 | 0.476 | 0.353 | 0.209 | 0.466 | 0.947 | 0.797 | 0.838 | 0.498 | 0.985 |
